Source: paper PMC5298231, “The Malaria Parasite's Lactate Transporter PfFNT Is the Target of Antiplasmodial Compounds Identified in Whole Cell Phenotypic Screens” (PLoS Pathogens, 2017)

System: PfENT1
Assay: [3H]hypoxanthine uptake by Xenopus oocytes expressing PfENT1
Type: cell-based, Plasmodium falciparum
Details: 1 μM and 4 μM; pH 6.0, 30 min
Source text: (PfCRT; from the chloroquine-resistant Dd2 strain) and on [^3H]hypoxanthine transport by oocytes expressing the P. falciparum equilibrative nucleoside/nucleobase transporter PfENT1 [27, 28].
The oocyte expression vectors containing PfFNT, PfENT1 and PfCRT were made previously. The Gly107Ser mutant form of PfFNT was generated through site-directed mutagenesis of the oocyte expression vector containing wild-type (3D7) PfFNT using primers 9 and 10 (S2 Table). Oocytes were harvested from adult female Xenopus laevis frogs and prepared as described previously. cRNA was made using the mMessage mMachine T7 transcription kit and the MEGAclear kit (Ambion) and microinjected into oocytes as outlined elsewhere. The amount of cRNA injected (per oocyte) was 30 ng for PfFNT, 10 ng for PfENT1, and 20 ng for PfCRT. The uptake of radiolabelled substrates was measured 2–5 days post-injection at 27.5°C in ND96 buffer (containing 96 mM NaCl, 2 mM KCl, 1 mM MgCl2, 1.8 mM CaCl2, 10 mM MES and 10 mM Tris-base; pH-adjusted to the value specified in the relevant Figure legends). […] Each experiment used ten oocytes for each condition tested. The influx of the radiolabelled substrate was halted by removing the reaction buffer and washing the oocytes twice in ice-cold ND96 buffer (3.5 mL). The oocytes were then transferred to separate wells of a 96-well plate, lysed with 10% SDS, and the radioactivity measured as described previously.
The data are averaged from four to five independent experiments (performed using oocytes from different frogs) and are shown + SEM. In B, the uptake of [^3H]hypoxanthine (0.36 μM) was measured over 30 min at pH 6.0. […] The data are averaged from three to six independent experiments (performed using oocytes from different frogs) and are shown + SEM. […] (TIF) Click here for additional data file.

COc1ccc2c(c1)OC(O)(C(F)(F)C(F)(F)F)CC2=O (stereo not shown) [MMV007839]
Inhibition of [3H]hypoxanthine uptake by PfENT1-expressing oocytes: not inhibiting
